According to patent US8404725B2, “Phenylamino isonicotinamide compounds” (Merck Patent GmbH, priority 2008, dated 2013):

Assays:
[1] = tested on: human pancreatic MiaPaCa-2 cells; test: Tumor Cell Proliferation Assay (ATP Lite), MiaPaCa-2; type: cell-based; settings: MIA PaCa-2, 96 h, 4 days
Protocol: (§1) Murine colon C26, human melanoma A375 and human pancreatic MiaPaCa-2 cells were plated in 96 well Corning white plates (1500 cells/well for C26, and 2000 cells/well for A375, and MiaPaCa-2) and cultured overnight at 37° C. in 5% CO2. Inhibitors were serially diluted in 100 DMSO and subsequently added to cells to reach a final concentration of 0.25% DMSO. The cells were incubated for 4 days in the presence of test compounds in cell growth media (DMEM with 10% fetal bovine serum, 2 mM glutamine for C26, and MiaPaCa-2, and RPMI with 10% fetal bovine serum, 2 mM glutamine for A375). Cell proliferation was quantitated using the ATP lite cell proliferation kit (Packard). Columns 2-5 show the concentration of compounds required to induce 50% cell death (IC50 in μM) of […].

[2] = molecular target: human MEK1 (Homo sapiens, UniProt Q02750); test: MEK-1 Enzyme Assay (LANCE-HTRF); type: biochemical; settings: 100 nM MEK1, 15 μM ATP, 300 nM ERK2, two hours
Protocol: The activity of the compounds of the present invention may be determined by the following procedure: Inhibition of human MEK1 kinase activity was monitored with a homogenous, fluorescence based assay. The assay uses time resolved fluorescence resonance energy transfer to probe for phosphorylation of […] by MEK1. The assay is carried out in low volume 96 well microtiterplates. In a total volume of 15 μl, compounds are incubated with 100 nM MEK1, 15 μM ATP, 300 nM ERK2 employing a buffer containing 20 mM TRIS/HCl, 10 mM MgCl2, 100 μM NaVO4, 1 mM DTT, and 0.005% Tween 20 (pH 7.4). After two hours, 5 nM Europium-anti-PY20 (Perkin Elmer) and 50 nM Anti-GST-Allophycocyanin (CisBio) in buffer containing 50 mM EDTA and 0.05% BSA are added and the reaction incubated for one hour in the dark. Time-resolved fluorescence is measured using a LJL-Analyst (Molecular Devices) with an excitation wavelength of 340 nm and an emission wavelength of 665 nm. The final concentration of DMSO is 2%.

[3] = tested on: human melanoma A375 cells; test: Tumor Cell Proliferation Assay (ATP Lite), A375; type: cell-based; settings: A-375, 96 h, 4 days
Protocol: as §1

[4] = tested on: Murine colon C26 cells; test: Tumor Cell Proliferation Assay (ATP Lite), C26; type: cell-based; settings: Mus musculus, 96 h, 4 days
Protocol: as §1

[5] = tested on: Colo-205 xenograft; test: In vivo efficacy, Colo-205 mouse xenograft model; settings: male nude mice
Protocol: (§2) Male nude (nu/nu) mice were injected subcutaneously above the right foreleg with certain number of cells of human tumor cell lines such as Colo-205, A375 or MiaPaCa2. Tumors were measured with calipers one week after cells were implanted. Tumor length (l) and width (w) were measured and tumor volume was calculated with the equation l*w^2/2. […] Tumor volume and body weight were measured for each animal on Days 0, 4, 6, 8, 10, 12 and 14. Tumor volume and percent body weight were analyzed via Two-Way Repeated Measures Analysis of Variance (RM-ANOVA) followed by Fisher's post-hoc multiple pair-wise comparisons of treatment group means.

[6] = tested on: MiaPaCa2 xenograft; test: In vivo efficacy, MiaPaCa2 mouse xenograft model; settings: male nude mice
Protocol: as §2

Chain of human MEK1 (Q02750 whole entry): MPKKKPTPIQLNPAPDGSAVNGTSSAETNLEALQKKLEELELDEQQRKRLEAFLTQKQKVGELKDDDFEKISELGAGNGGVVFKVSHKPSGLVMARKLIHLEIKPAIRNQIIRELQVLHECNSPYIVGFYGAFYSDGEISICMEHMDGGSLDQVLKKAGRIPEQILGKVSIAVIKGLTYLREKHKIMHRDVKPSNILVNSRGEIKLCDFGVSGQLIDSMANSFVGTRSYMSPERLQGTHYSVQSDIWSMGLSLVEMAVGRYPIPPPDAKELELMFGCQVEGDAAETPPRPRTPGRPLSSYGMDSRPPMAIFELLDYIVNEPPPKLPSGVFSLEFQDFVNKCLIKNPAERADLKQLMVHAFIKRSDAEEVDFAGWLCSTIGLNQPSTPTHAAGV

IC50 [1] [nM] | IC50 [2] [nM] | IC50 [3] [nM] | IC50 [4] [nM] | SMILES | tumor growth inhibition ([5]; daily 1.5 mg/kg, oral route) [%] | TGI ([6]; 33 μg/kg/day) [%] | TGI ([6]; 50 μg/kg/day) [%] | tumor growth inhibition (TGI) ([5]; 50 μg/kg*day, oral route) [%] | tumor growth inhibition ([5]; 150 μg/kg/day) [%]
2 | 34.5 | 2 | 2 | O=C(N[C@@H]1CCC[C@@H](O)[C@H]1O)c1cc(Cl)ncc1Nc1ccc(I)cc1F (racemic) [(1), 2-Chloro-N-((1RS,2SR,3RS)-2,3-dihydroxy-cyclohexyl)-5-(2-fluoro-4-iodo-phenylamino)-sonicotinamide] | – | – | – | – | –
4.5 | 74 | 1 | 5 | O=C(N[C@@H]1CCC[C@@H](O)[C@H]1O)c1c(F)cncc1Nc1ccc(I)cc1F (racemic) [(2)] | – | – | – | – | –
7.3 | 94.8 | 1.4 | 16 | O=C(N[C@H]1CCC[C@H](O)[C@@H]1O)c1ccncc1Nc1ccc(I)cc1F (racemic) [(3), N-[(1SR,2RS,3SR)-2,3-dihydroxycyclohexyl]-3-[(2-fluoro-4-iodophenyl)amino]isonicotinamide] | – | – | – | – | –
49 | 160 | 85.5 | 20 | N[C@@H]1CCC[C@@H](OC(=O)c2c(F)cncc2Nc2ccc(I)cc2F)[C@H]1O (racemic) [(4), 3-Fluoro-5-(2-fluoro-4-iodo-phenylamino)-isonicotinic acid (1RS,2SR,3RS)-3-amino-2-hydroxy-cyclohexyl ester] | – | – | – | – | –
42.5 | 98 | 7.5 | 73 | O=C(N[C@@H]1CCC[C@@H](O)[C@H]1O)c1ccncc1Nc1ccc(Br)cc1F (racemic) [(5), 3-(4-Bromo-2-fluoro-phenylamino)-N-((1RS,2SR,3RS)-2,3-dihydroxy-cyclohexyl)-isonicotinamide] | – | – | – | – | –
75.3 | 38 | 16.8 | 113 | O=C(N[C@@H]1CCC[C@@H](O)[C@H]1O)c1ccncc1Nc1ccc(Br)cc1Cl (racemic) [(6), 3-(4-Bromo-2-chloro-phenylamino)-N-((1RS,2SR,3RS)-2,3-dihydroxy-cyclohexyl)-isonicotinamide] | – | – | – | – | –
2120 | 2670 | 274 | 5400 | O=C(N[C@H]1CCC[C@H](O)[C@@H]1O)c1ccncc1Nc1ccc(I)cc1F [(7), N-((1S,2R,3S)-2,3-dihydroxycyclohexyl)-3-(2-fluoro-4-iodophenylamino)isonicotinamide] | – | – | – | – | –
– | – | – | – | O=C(N[C@@H]1CCC[C@@H](O)[C@H]1O)c1ccncc1Nc1ccc(Br)cc1F [(9), 3-(4-bromo-2-fluorophenylamino)-N-((1R,2S,3R)-2,3-dihydroxycyclohexyl)isonicotinamide] | 98.5 | – | – | – | –
74 | 189 | 21.5 | 150 | O=C(N[C@@H]1CCC[C@@H](O)[C@H]1O)c1ccncc1Nc1ccccc1F [(10), N-((1R,2S,3R)-2,3-Dihydroxy-cyclohexyl)-3-(2-fluoro-phenylamino)-isonicotinamide] | – | – | – | – | –
2.7 | 133 | 1.6 | 4.7 | O=C(N[C@@H]1CCC[C@@H](O)[C@H]1O)c1ccncc1Nc1ccc(I)cc1F [Compound (8), N-[(1R,2S,3R)-2,3-dihydroxycyclohexyl]-3-[(2-fluoro-4-iodophenyl)amino]isonicotinamide] | – | 100.97 | 110.74 | 100.69 | 115.33
